ChEMBL document CHEMBL3751735, “Discovery of 2-(4-sulfonamidophenyl)-indole 3-carboxamides as potent and selective inhibitors with broad hepatitis C virus genotype activity targeting HCV NS4B” (Bioorg Med Chem Lett, 2016)

Tests used:
[1] = system: Hepatitis C virus; assay: Antiviral activity against HCV genotype 3a S52/SG-Feo(SH) infected in human HuH7.5 cells measured 3 days post dose by Luciferase assay; assay type: functional, organism-based, Hepacivirus hominis; settings: Huh-7, 72 h
[2] = Toxicity against human HuH7 cells harboring HCV genotype 1b bicistronic replicon assessed as inhibition of GAPDH mRNA expression measured 3 days post dose by real time RT-PCR analysis; assay type: cell-based, Huh-7
[3] = Ratio of drug level in liver to plasma in Sprague-Dawley rat at 10 mg/kg, po measured 6 hrs post dose; assay type: ADME, organism-based; settings: liver and plasma
[4] = system: Hepatitis C virus; assay: Antiviral activity against HCV genotype 2a JFH-1 infected in human HuH7.5 cells assessed as HCV RNA expression measured 72 hrs post dose by qRT-PCR analysis; assay type: functional, organism-based, Hepacivirus hominis; settings: JFH-1, Huh-7, 72 h
[5] = system: Hepatitis C virus; assay: Antiviral activity against HCV genotype 1a H77S bicistronic replicon infected in human Huh7 cells assessed as replicon RNA expression measured 3 days post dose by real time RT-PCR analysis; assay type: functional, organism-based, Hepacivirus hominis; settings: Huh-7, 72 h
[6] = AUC (0 to 6 hrs) in Sprague-Dawley rat plasma at 10 mg/kg, po measured at 30 mins to 6 hrs post dose; assay type: ADME, organism-based; set-up: dose 10 mg/kg, time < 6 hr, route oral
[7] = system: Hepatitis C virus; assay: Antiviral activity against HCV genotype 1b Con1 bicistronic replicon infected in human Huh7 cells assessed as replicon RNA expression measured 3 days post dose by real time RT-PCR analysis; assay type: functional, organism-based, Hepacivirus hominis; settings: isolate Con1, Huh-7, 72 h
[8] = system: Hepatitis C virus; assay: Antiviral activity against HCV genotype 1b harboring NS4B V105M mutant relative to wild type HCV genotype 1b; assay type: functional, Hepacivirus hominis
[9] = system: Hepatitis C virus; assay: Antiviral activity against HCV genotype 1b harboring NS4B F98C mutant relative to wild type HCV genotype 1b; assay type: functional, Hepacivirus hominis

SMILES | EC50 [1] [nM] | IC50 at 3 days [2] [nM] | Kp at 6 h [3] | EC50 [4] [nM] | EC50 [5] [nM] | AUC(0-t) at 6 h [6] [µM·h] | EC50 [7] [nM] | fold change (FC) [8] | fold change (FC) [9]
CC(C)(C)S(=O)(=O)Nc1ccc(-c2c(C(N)=O)c3cc(F)c(OC(F)F)cc3n2-c2ccccc2)cc1 | 12 | > 1100 | 26 | 62 | 2 | 14.4 | 2 |  | 
CCc1cc2c(cc1F)c(C(N)=O)c(-c1ccc(NS(=O)(=O)C(C)(C)C)cn1)n2C1CCCCC1 |  | > 10000 |  |  |  |  | 68 |  | 
CCCS(=O)(=O)Nc1ccc(-c2c(C(N)=O)c3cc(F)c(C)cc3n2C2CCCC2)cc1 |  | > 10000 |  |  |  |  | 870 |  | 
CCCc1cc2c(cc1F)c(C(N)=O)c(-c1ccc(NS(=O)(=O)C(C)(C)C)cc1)n2C1CCCC1 |  | 10000 |  |  |  |  | 1800 |  | 
Cc1cc(NS(=O)(=O)C(C)(C)C)ccc1-c1c(C(N)=O)c2cc(F)c(OC(F)F)cc2n1-c1ccccc1 |  | > 10000 |  |  |  |  | 2 |  | 
CC(C)(C)S(=O)(=O)Nc1ccc(-c2c(C(N)=O)c3cc(F)c(OC(F)F)cc3n2C2CCCCC2)c(Cl)c1 | 0.2 | > 10000 | 115 | 28 | < 1 | 2.1 | 2 |  | 
Cc1cc2c(cc1F)c(C(N)=O)c(-c1ccc(NS(=O)(=O)C(C)(C)C)cc1)n2C1CCCC1 | 317 | > 10000 | 15 | 10 | 20 | 0.457 | 39 |  | 
CCc1cc2c(cc1F)c(C(N)=O)c(-c1ccc(NS(=O)(=O)C(C)(C)C)cc1)n2C1CCCC1 | 115 | > 10000 | 27 | 20 | 130 | 4.12 | 7 |  | 
Cc1cc2c(cc1F)c(C(N)=O)c(-c1ccc(NS(=O)(=O)C(C)(C)C)cc1)n2C1CCC1 | 348 | > 10000 | 15 | 10 | 90 | 1.45 | 45 |  | 
Cc1cc(-c2c(C(N)=O)c3cc(F)c(OC(F)F)cc3n2-c2ccccc2)ccc1NS(=O)(=O)C(C)(C)C |  | > 10000 |  |  |  |  | 120 |  | 
CC(C)(C)S(=O)(=O)Nc1ccc(-c2c(C(N)=O)c3cc(F)c(OC(F)F)cc3n2C2CCCC2)c(Cl)c1 | 58 | 4500 | 65 | 30 | 7 | 9.96 | 2 |  | 
Cc1cc2c(cc1F)c(C(N)=O)c(-c1ccc(NS(=O)(=O)C(C)C)cc1)n2C1CCCC1 |  | > 10000 |  |  |  |  | 56 |  | 
CCc1cc2c(cc1F)c(C(N)=O)c(-c1cnc(NS(=O)(=O)C(C)(C)C)nc1)n2C1CCCCC1 |  | > 10000 |  |  |  |  | 2100 |  | 
Cc1cc(NS(=O)(=O)C(C)(C)C)ccc1-c1c(C(N)=O)c2cc(F)c(OC(F)F)cc2n1C1CCCCC1 | 0.5 | > 10000 | 62 | 24 | 1 | 4.96 | 10 |  | 
CC(C)(C)S(=O)(=O)Nc1ccc(-c2c(C(N)=O)c3cc(F)c(OC(F)F)cc3n2-c2ccccc2)cc1F |  | > 1100 |  |  |  |  | 12 |  | 
Cc1cc2c(cc1F)c(C(N)=O)c(-c1ccc(NS(=O)(=O)C(C)(C)C)cc1)n2C1CCCCC1 | 80 | > 10000 | 11 | 135 | 8 | 0.685 | 2 |  | 
Cc1cc2c(cc1F)c(C(N)=O)c(-c1ccc(NS(=O)(=O)C(C)(C)C)cc1)n2-c1ccccc1 | 374 | > 10000 | 24 | 90 | 180 | 14.9 | 14 |  | 
CCc1cc2c(cc1F)c(C(N)=O)c(-c1ccc(NS(=O)(=O)C(C)(C)C)nc1)n2C1CCCCC1 |  | > 10000 |  |  |  |  | 19 |  | 
CC(C)(C)S(=O)(=O)Nc1ccc(-c2c(C(N)=O)c3cc(F)c(OC(F)F)cc3n2C2CCCCC2)cc1 | 3 | > 10000 | 25 | 35 | 1 | 0.831 | 2 | >55 | >=22
CCc1cc2c(cc1F)c(C(N)=O)c(-c1ccc(NS(=O)(=O)C(C)(C)C)cc1)n2C1CCCCC1 |  | > 10000 |  |  |  |  | 4 |  | 

SMILES | EC50 [1] [nM] | IC50 at 3 days [2] [nM] | Kp at 6 h [3] | EC50 [4] [nM] | EC50 [5] [nM] | AUC(0-t) at 6 h [6] [µM·h] | EC50 [7] [nM] | fold change (FC) [8] | fold change (FC) [9]
CC(C)(C)S(=O)(=O)Nc1ccc(-c2c(C(N)=O)c3cc(F)c(C4CC4)cc3n2C2CCCC2)cc1 |  | > 10000 |  |  |  |  | 13 |  | 
Cc1cc2c(cc1F)c(C(N)=O)c(-c1ccc(NS(=O)(=O)C(C)(C)C)cc1)n2C1CCOCC1 |  | > 10000 |  |  |  |  | 17 |  | 
CCc1cc2c(cc1F)c(C(N)=O)c(-c1ccc(NS(=O)(=O)C(C)C)cc1)n2C1CCCC1 |  | > 10000 |  |  |  |  | 68 |  | 
CC(C)c1cc2c(cc1F)c(C(N)=O)c(-c1ccc(NS(=O)(=O)C(C)(C)C)cc1)n2C1CCCC1 |  | > 10000 |  |  |  |  | 170 |  | 
CC(C)(C)S(=O)(=O)Nc1ccc(-c2c(C(N)=O)c3cc(F)c(OC(F)F)cc3n2C2CCCC2)cc1 | 20 | > 10000 | 47 | 6 | 4 | 0.382 | 5 |  | 
CC(C)(C)S(=O)(=O)Nc1ccc(-c2c(C(N)=O)c3cc(F)c(OC(F)F)cc3n2C2CCCCC2)cc1Cl |  | > 1000 |  |  |  |  | 305 |  | 
Cc1cc2c(cc1F)c(C(N)=O)c(-c1ccc(NS(=O)(=O)C(C)(C)C)cc1)n2-c1cccnc1 |  | > 10000 |  |  |  |  | 180 |  | 
Cc1cc(NS(=O)(=O)C(C)(C)C)ccc1-c1c(C(N)=O)c2cc(F)c(OC(F)F)cc2n1C1CCCC1 |  | 9100 |  |  |  |  | 14 |  | 
CC(C)(C)S(=O)(=O)Nc1ccc(-c2c(C(N)=O)c3cc(F)c(OC(F)F)cc3n2C2CCCCC2)c(F)c1 | 0.4 | > 10000 | 70 | 23 | 2 | 3.09 | 2 |  | 
CC(C)(C)S(=O)(=O)Nc1ccc(-c2c(C(N)=O)c3cc(F)c(OC(F)F)cc3n2C2CCCCC2)cc1F |  | > 1000 |  |  |  |  | 3 |  | 
CC(C)(C)S(=O)(=O)Nc1ccc(-c2c(C(N)=O)c3cc(F)c(OC(F)F)cc3n2-c2ccccc2)c(F)c1 | 4 | > 10000 | 57 | 37 | 3 | 7.93 | 2 |  | 
COc1cc2c(cc1F)c(C(N)=O)c(-c1ccc(NS(=O)(=O)C(C)(C)C)cc1)n2C1CCCC1 |  | > 10000 |  |  |  |  | 59 |  | 
Cc1cc2c(cc1F)c(C(N)=O)c(-c1ccc(NS(=O)(=O)C(C)(C)C)cc1)n2-c1ccncc1 |  | > 10000 |  |  |  |  | 68 |  | 
CCOc1cc2c(cc1F)c(C(N)=O)c(-c1ccc(NS(=O)(=O)C(C)(C)C)cc1)n2C1CCCC1 |  | > 10000 |  |  |  |  | 150 |  | 
CC(C)(C)S(=O)(=O)Nc1ccc(-c2c(C(N)=O)c3c(F)cc(C(F)F)cc3n2C2CCCC2)cc1 |  | > 10000 |  |  |  |  | 4 |  | 
CC(C)(C)S(=O)(=O)Nc1ccc(-c2c(C(N)=O)c3cc(F)c(OC(F)F)cc3n2C2CCCC2)c(F)c1 |  | > 10000 |  | 6 | 10 | 0.37 | 2 |  | 
Cc1cc(-c2c(C(N)=O)c3cc(F)c(OC(F)F)cc3n2C2CCCCC2)ccc1NS(=O)(=O)C(C)(C)C |  | > 1000 |  |  |  |  | 36 |  | 
CC(C)(C)S(=O)(=O)Nc1ccc(-c2c(C(N)=O)c3cc(F)c(OC(F)F)cc3n2C2CCCCC2)cn1 | 119 | > 10000 | 332 | 380 | 10 | 0.204 | 6 |  | 
Cc1cc2c(cc1F)c(C(N)=O)c(-c1ccc(NS(=O)(=O)C(C)(C)C)cc1)n2-c1ccc(Cl)cc1 |  | > 10000 |  |  |  |  | 43 |  | 
Cc1cc(F)c2c(C(N)=O)c(-c3ccc(NS(=O)(=O)C(C)(C)C)cc3)n(C3CCCC3)c2c1 |  | > 10000 |  |  |  |  | 34 |  | 
